Biological target: PD-1/PD-L1 (Homo sapiens (Human), UniProt Q9NZQ7)
Assay: PD-1/PD-L1 Homogenous Time-Resolved Fluorescence (HTRF) binding assay
Conditions: PD-1-Ig (20 nM final)/PD-L1-His (10 nM final) binding assay
Description: The ability of the compounds of the invention to bind to PD-L1 was investigated using a PD-1/PD-L1 Homogenous Time-Resolved Fluorescence (HTRF) binding assay.
The interaction of PD-1 and PD-L1 can be assessed using soluble, purified preparations of the extracellular domains of the two proteins. The PD-1 and PD-L1 protein extracellular domains were expressed as fusion proteins with detection tags, for PD-1, the tag was the Fc portion of Immunoglobulin (PD-1-Ig) and for PD-L1 it was the 6 histidine motif (PD-L1-His). All binding studies were performed in an HTRF assay buffer consisting of dPBS supplemented with 0.1% […] bovine serum albumin and 0.05% (v/v) Tween-20. For the h/PD-L1-His binding assay, inhibitors were pre-incubated with PD-L1-His (10 nM final) for 15m in 4 μl of assay buffer, followed by addition of PD-1-Ig (20 nM final) in 1 μl of assay buffer and further incubation for 15 m. HTRF detection was achieved using europium crypate-labeled anti-Ig (1 nM final) and allophycocyanin (APC) labeled anti-His (20 nM final). Antibodies were diluted in HTRF detection buffer and 5 μl was dispensed on top of the binding reaction. The reaction mixture was allowed to equilibrate for 30 minutes and the resulting signal (665 nm/620 nm ratio) was obtained using an EnVision fluorometer. Additional binding assays were established between the human proteins PD-1-Ig/PD-L2-His (20 & 5 nM, respectively) and CD80-His/PD-L1-Ig (100 & 10 nM, respectively).
Recombinant Proteins: Human PD-1 (25-167) with a C-terminal human Fc domain of immunoglobulin G (Ig) epitope tag [hPD-1 (25-167)-3S-IG] and human PD-L1 (18-239) with a C-terminal His epitope tag [hPD-L1(18-239)-TVMV-His] were expressed in HEK293T cells and purified sequentially by ProteinA affinity chromatography and size exclusion chromatography. Human PD-L2-His and CD80-His was obtained through commercial sources.
Homogenous Time-Resolved Fluorescence (HTRF) Assays of Binding of Soluble PD-1 to Soluble PD-L1. Soluble PD-1 and soluble PD-L1 refers to proteins with carboxyl-end truncations that remove the transmembrane-spanning regions and are fused to heterologous sequences, specifically the Fc portion of the human immunoglobuling G sequence (Ig) or the hexahistidine epitope tag (His). All binding studies were performed in an HTRF assay buffer consisting of dPBS supplemented with 0.1% (w/v) bovine serum albumin and 0.05% (v/v) Tween-20. For the PD-1-Ig/PD-L1-His binding assay, inhibitors were pre-incubated with PD-L1-His (10 nM final) for 15m in 4 μl of assay buffer, followed by addition of PD-1-Ig (20 nM final) in 1 μl of assay buffer and further incubation for 15 m. PD-L1 fusion proteins from either human, cynomologous macaques, mouse, or other species were used. HTRF detection was achieved using europium crypate-labeled anti-Ig monoclonal antibody (1 nM final) and allophycocyanin (APC) labeled anti-His monoclonal antibody (20 nM final). Antibodies were diluted in HTRF detection buffer and 5 μl was dispensed on top of binding reaction. The reaction was allowed to equilibrate for 30 minutes and signal (665 nm/620 nm ratio) was obtained using an EnVision fluorometer. Additional binding assays were established between PD-1-Ig/PD-L2-His (20 and 5 nM, respectively), CD80-His/PD-L1-Ig (100 and 10 nM, respectively) and CD80-His/CTLA4-Ig (10 and 5 nM, respectively).
Recombinant Proteins. Carboxyl-truncated human PD-1 (amino acids 25-167) with a C-terminal human Ig epitope tag [hPD-1 (25-167)-3S-IG] and human PD-L1 (amino acids 18-239) with a C-terminal His epitope tag [hPD-L1(19-239)-tobacco vein mottling virus protease cleavage site (TVMV)-His] were expressed in HEK293T cells and purified sequentially by recombinant Protein A affinity chromatography and size exclusion chromatography. Human PD-L2-His (Sino Biologicals), CD80-His (Sino Biologicals), CTLA4-Ig (RnD Systems) were all obtained through commercial sources.

Sequence of PD-1/PD-L1 (Q9NZQ7 18-239): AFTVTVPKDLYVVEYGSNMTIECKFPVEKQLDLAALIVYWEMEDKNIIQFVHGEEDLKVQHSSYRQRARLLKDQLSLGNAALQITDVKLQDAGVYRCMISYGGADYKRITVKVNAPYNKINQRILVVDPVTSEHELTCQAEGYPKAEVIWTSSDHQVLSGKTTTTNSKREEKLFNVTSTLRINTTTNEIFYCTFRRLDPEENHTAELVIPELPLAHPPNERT

| SMILES | IC50 |
| --- | --- |
| Cc1cnc(COc2cc(OCc3cccc(-c4ccc5c(c4)OCCO5)c3C)c(Cl)cc2CN[C@@](C)(CO)C(=O)O)cn1 [Example 1002, (S)-2-((5-Chloro-4-((3-(2,3-dihydrobenzo[b][1,4]dioxin-6-yl)-2-methylbenzyl)oxy)-2-((5-methylpyrazin-2-yl)methoxy)benzyl)amino)-3-hydroxy-2-methylpropanoic acid] | 6.8 nM |
| Cc1c(COc2cc(OCc3ccnc(NC(=O)N4CCOCC4)c3)c(CN[C@@](C)(CO)C(=O)O)cc2Cl)cccc1-c1ccc2c(c1)OCCO2 [Example 1004, (S)-2-((5-Chloro-4-((3-(2,3-dihydrobenzo[b][1,4]dioxin-6-yl)-2-methylbenzyl)oxy)-2-((2-(morpholine-4-carboxamido)pyridin-4-yl)methoxy)benzyl)amino)-3-hydroxy-2-methylpropanoic acid] | 17.3 nM |
| CCn1cc(COc2cc(OCc3cccc(-c4ccc5c(c4)OCCO5)c3C)c(Cl)cc2CN[C@H](CO)C(=O)O)cn1 [Example 1005, (R)-2-((5-Chloro-4-((3-(2,3-dihydrobenzo[b][1,4]dioxin-6-yl)-2-methylbenzyl)oxy)-2-((1-ethyl-1H-pyrazol-4-yl)methoxy)benzyl)amino)-3-hydroxypropanoic acid] | 7.9 nM |
| COC(=O)CCSc1cncc(COc2cc(OCc3cccc(-c4ccc5c(c4)OCCO5)c3C)c(Cl)cc2CN2CCCC[C@H]2C(=O)O)c1 [Example 1007, (S)-1-(5-Chloro-4-((3-(2,3-dihydrobenzo[b][1,4]dioxin-6-yl)-2-methylbenzyl)oxy)-2-((5-((3-methoxy-3-oxopropyl)thio)pyridin-3-yl)methoxy)benzyl)piperidine-2-carboxylic acid] | 27.6 nM |
| Cc1c(COc2cc(OCc3cnn(CC(=O)OC(C)(C)C)c3)c(CN[C@@](C)(CO)C(=O)O)cc2Cl)cccc1-c1ccc2c(c1)OCCO2 [Example 1009, (S)-2-((2-((1-(2-(tert-Butoxy)-2-oxoethyl)-1H-pyrazol-4-yl)methoxy)-5-chloro-4-((3-(2,3-dihydrobenzo[b][1,4]dioxin-6-yl)-2-methylbenzyl)oxy)benzyl)amino)-3-hydroxy-2-methylpropanoic acid] | 43.7 nM |
| Cc1c(COc2cc(OCc3cncc(SCc4ccccc4)c3)c(CN3CCCC[C@H]3C(=O)O)cc2Cl)cccc1-c1ccc2c(c1)OCCO2 [Example 1010, (S)-1-(2-((5-(Benzylthio)pyridin-3-yl)methoxy)-5-chloro-4-((3-(2,3-dihydrobenzo [b][1,4]dioxin-6-yl)-2-methylbenzyl)oxy)benzyl)piperidine-2-carboxylic acid] | 43.4 nM |
| Cc1c(COc2cc(OCc3cnn(-c4ccccn4)c3)c(CN[C@@](C)(CO)C(=O)O)cc2Cl)cccc1-c1ccc2c(c1)OCCO2 [Example 1011, (S)-2-((5-Chloro-4-((3-(2,3-dihydrobenzo[b][1,4]dioxin-6-yl)-2-methylbenzyl)oxy)-2-((1-(pyridin-2-yl)-1H-pyrazol-4-yl)methoxy)benzyl)amino)-3-hydroxy-2-methylpropanoic acid] | 11 nM |
| Cc1c(COc2cc(OCc3cccc(-c4nc(CC(=O)O)cs4)c3)c(CN[C@@](C)(CO)C(=O)O)cc2Cl)cccc1-c1ccc2c(c1)OCCO2 [Example 1013, (S)-2-((2-((3-(4-(Carboxymethyl)thiazol-2-yl)benzyl)oxy)-5-chloro-4-((3-(2,3-dihydrobenzo[b][1,4]dioxin-6-yl)-2-methylbenzyl)oxy)benzyl)amino)-3-hydroxy-2-methylpropanoic acid] | 72 nM |
| Cc1c(COc2cc(OCc3cccc(-c4nc(CC(=O)O)co4)c3)c(CN[C@@](C)(CO)C(=O)O)cc2Cl)cccc1-c1ccc2c(c1)OCCO2 [Example 1015, (S)-2-((2-((3-(4-(Carboxymethyl)oxazol-2-yl)benzyl)oxy)-5-chloro-4-((3-(2,3-dihydrobenzo[b][1,4]dioxin-6-yl)-2-methylbenzyl)oxy)benzyl)amino)-3-hydroxy-2-methylpropanoic acid] | 68.4 nM |

The next compounds have a lower IC50 than those just listed; values first:

| IC50 | SMILES |
| --- | --- |
| 1.9 nM | Cc1c(COc2cc(OCC3CCCN(C)C3)c(CN[C@@H](CO)C(=O)O)cc2Cl)cccc1-c1ccc2c(c1)OCCO2 (single isomer, unassigned) [Example 2005] |
| 2.8 nM | Cc1c(COc2cc(OCC3CCCN(C)C3)c(CN[C@@H](CO)C(=O)O)cc2Cl)cccc1-c1ccc2c(c1)OCCO2 (single isomer, unassigned) [Example 2006] |
| 4.5 nM | Cc1cnc(COc2cc(OCc3cccc(-c4ccc5c(c4)OCCO5)c3C)c(Cl)cc2CN[C@H](CO)C(=O)O)cn1 [Example 1001, (R)-2-((5-Chloro-4-((3-(2,3-dihydrobenzo[b][1,4]dioxin-6-yl)-2-methylbenzyl)oxy)-2-((5-methylpyrazin-2-yl)methoxy)benzyl)amino)-3-hydroxypropanoic acid] |
| 5.8 nM | CCn1cc(COc2cc(OCc3cccc(-c4ccc5c(c4)OCCO5)c3C)c(Cl)cc2CN[C@@](C)(CO)C(=O)O)cn1 [Example 1003, (S)-2-((5-Chloro-4-((3-(2,3-dihydrobenzo[b][1,4]dioxin-6-yl)-2-methylbenzyl)oxy)-2-((1-ethyl-1H-pyrazol-4-yl)methoxy)benzyl)amino)-3-hydroxy-2-methylpropanoic acid] |
| 1.1 nM | COC(=O)CCSc1cncc(COc2cc(OCc3cccc(-c4ccc5c(c4)OCCO5)c3C)c(Cl)cc2CN[C@@](C)(CO)C(=O)O)c1 [Example 1006, (S)-2-((5-Chloro-4-((3-(2,3-dihydrobenzo[b][1,4]dioxin-6-yl)-2-methylbenzyl)oxy)-2-((5-((3-methoxy-3-oxopropyl)thio)pyridin-3-yl)methoxy)benzyl)amino)-3-hydroxy-2-methylpropanoic acid] |
| 1.7 nM | Cc1c(COc2cc(OCc3cnn(CC#N)c3)c(CN[C@@](C)(CO)C(=O)O)cc2Cl)cccc1-c1ccc2c(c1)OCCO2 [Example 1008, (S)-2-((5-chloro-2-((1-(cyanomethyl)-1H-pyrazol-4-yl)methoxy)-4-((3-(2,3-dihydrobenzo[b][1,4]dioxin-6-yl)-2-methylbenzyl)oxy)benzyl)amino)-3-hydroxy-2-methylpropanoic acid] |
| 3 nM | Cc1c(COc2cc(OCc3cncc(S(=O)(=O)CCC(=O)O)c3)c(CN3CCCC[C@H]3C(=O)O)cc2Cl)cccc1-c1ccc2c(c1)OCCO2 [Example 1012, (S)-1-(2-((5-((2-Carboxyethyl)sulfonyl)pyridin-3-yl)methoxy)-5-chloro-4-((3-(2,3-dihydrobenzo[b]1[1,4]dioxin-6-yl)-2-methylbenzyl)oxy)benzyl)piperidine-2-carboxylic acid] |
| 6.6 nM | Cc1c(COc2cc(OCc3cncc(SCCC(=O)O)c3)c(CN[C@@](C)(CO)C(=O)O)cc2Cl)cccc1-c1ccc2c(c1)OCCO2 [Example 1014, (S)-2-((2-((5-((2-Carboxyethyl)thio)pyridin-3-yl)methoxy)-5-chloro-4-((3-(2,3-dihydrobenzo[b][1,4]dioxin-6-yl)-2-methylbenzyl)oxy)benzyl)amino)-3-hydroxy-2-methylpropanoic acid] |
| 5.4 nM | Cc1c(COc2cc(OCc3cnn(CC(=O)O)c3)c(CN[C@@](C)(CO)C(=O)O)cc2Cl)cccc1-c1ccc2c(c1)OCCO2 [Example 1016, (S)-2-((2-((1-(Carboxymethyl)-1H-pyrazol-4-yl)methoxy)-5-chloro-4-((3-(2,3-dihydrobenzo[b][1,4]dioxin-6-yl)-2-methylbenzyl)oxy)benzyl)amino)-3-hydroxy-2-methylpropanoic acid] |
